# Reference: patent US20250263370A1 (Tay Therapeutics Limited, priority 2022, published 2025)
# Entries after “also recorded” stand apart in the source; their conditions may differ. Read-outs that look alike come from different tables or passages of the source.
# Assay: Beagle dog PK study 2 of Example 101 (HPβCD based formulation, IV), with clinical observations
# Format: in vivo
# Conditions: for concentration at 0.083 h / concentration at 0.25 h / concentration at 0.5 h / concentration at 1 h / concentration at 2 h / concentration at 4 h / concentration at 8 h / concentration at 24 h / AUC(0-inf) / AUC(0-t) / C0 / half-life / MRT inf / Vd: beagle, dog, plasma, iv, 1 mg/kg; for MRT inf: read-out: MRTInf—obs; for Vd: read-out: Vss—obs
# Method: The purpose of this study was to examine the pharmacokinetics of Example 101 in beagle dogs. […] An oral PK study was also undertaken in Lewis rats—see Experimental Method C.
# Body weight was recoded prior to dosing, and detailed clinical observations were made prior to dosing and throughout the study, as needed.
# 78.646 mL of HPβCD (20% solution w/v) was then added with vortex and sonication.
# Blood samples (˜0.3 mL) were collected according to a schedule (shown below) by venipuncture of peripheral veins except for the dosing vein, and EDTA-K2 was used as anticoagulant. Within 30 minutes of collection, the samples were centrifuged at approximately 2000×g for 10 minutes at 4° C. to obtain blood plasma. The plasma samples were immediately divided into two aliquots (˜75 μL each), transferred to a cryogenic vial, and stored in a freezer at ˜75±15° C. prior to analysis.
# Blood samples were collected at 0.083, 0.25, 0.5, 1, 2, 4, 8, and 24 h following the initial dosing (0 h).
# The experiments were conducted on a Shimadzu DGU-20A5R and AB API 5500+LC/MS/MS instrument with an Agilent Poroshell EC-C18 4 μm (50×2.1 mm) column. A gradient of 95% water (0.1% formic acid)/95% acetonitrile (0.1% formic acid) was used as the mobile phase. The sample injection volume was 1 μL, and the flow rate was 0.6 mL/min. The gathered data were used for pharmacokinetic calculations using T½, C0, AUClast, AUCinf, MRTinf, CI, Vss, and Number of Points for Regression as parameters.
# [1] = beagle dogs, IV, 0.5 mg/mL in HPβCD based formulation, PK study 2
# [2] = dog PK study 2, IV 1 mg/kg, HPβCD, Test Animal 1, read-out: Plasma concentration
# [3] = dog PK study 2, IV 1 mg/kg, HPβCD, Test Animal 2, read-out: Plasma concentration
# [4] = dog PK study 2, IV 1 mg/kg, HPβCD, Test Animal 3, read-out: Plasma concentration
# [5] = dog PK study 2, IV 1 mg/kg, HPβCD, mean, read-out: Average plasma concentration, Mean
# [6] = dog PK study 2, IV 1 mg/kg, HPβCD, Test Animal 1
# [7] = dog PK study 2, IV 1 mg/kg, HPβCD, Test Animal 2
# [8] = dog PK study 2, IV 1 mg/kg, HPβCD, Test Animal 3
# [9] = dog PK study 2, IV 1 mg/kg, HPβCD, mean
smiles,measurement,setting,value
"CNC(=O)c1[nH]c(C(=O)NC2CCC2)cc1O[C@@H](C)c1ccccc1 (stereo in doubt) [Example 101, N^5-cyclobutyl-N^2-methyl-3-(1-phenylethoxy)-1H-pyrrole-2,5-dicarboxamide]",clinical observations,[1],soft feces 8 hours after administration; also recorded: No other clinical observations were made; also recorded: fewer clinical observations in response to Example 101 when prepared in HPβCD
same,plasma concentration as a function of time (FIGS. 1D-1E),[1],Plasma concentrations decreased similarly over the first 2 h post-administration
same,concentration at 0.083 h,[2],1270 ng/mL
same,concentration at 0.083 h,[3],1460 ng/mL
same,concentration at 0.083 h,[4],1580 ng/mL
same,concentration at 0.083 h,[5],1440 ng/mL
same,concentration at 0.25 h,[2],721 ng/mL
same,concentration at 0.25 h,[3],820 ng/mL
same,concentration at 0.25 h,[4],985 ng/mL
same,concentration at 0.25 h,[5],842 ng/mL
same,concentration at 0.5 h,[2],322 ng/mL
same,concentration at 0.5 h,[3],498 ng/mL
same,concentration at 0.5 h,[4],702 ng/mL
same,concentration at 0.5 h,[5],507 ng/mL
same,concentration at 1 h,[2],187 ng/mL
same,concentration at 1 h,[3],140 ng/mL
same,concentration at 1 h,[4],320 ng/mL
same,concentration at 1 h,[5],216 ng/mL
same,concentration at 2 h,[2],49.3 ng/mL
same,concentration at 2 h,[3],54.1 ng/mL
same,concentration at 2 h,[4],159 ng/mL
same,concentration at 2 h,[5],87 ng/mL
same,concentration at 4 h,[2],4.83 ng/mL
same,concentration at 4 h,[3],10.8 ng/mL
same,concentration at 4 h,[4],42.1 ng/mL
same,concentration at 4 h,[5],19.2 ng/mL
same,concentration at 8 h,[2],0 ng/mL
same,concentration at 8 h,[3],2.5 ng/mL
same,concentration at 8 h,[4],6.58 ng/mL
same,concentration at 8 h,[5],3.03 ng/mL
same,concentration at 24 h,"dog PK study 2, IV 1 mg/kg, HPβCD, 24 h, Test Animal 1",0 ng/mL
same,concentration at 24 h,"dog PK study 2, IV 1 mg/kg, HPβCD, 24 h, Test Animal 2",0 ng/mL
same,concentration at 24 h,"dog PK study 2, IV 1 mg/kg, HPβCD, 24 h, Test Animal 3",0 ng/mL
same,AUC(0-inf),[6],723 ng·h/mL
same,AUC(0-t),[6],719 ng·h/mL
same,C0,[6],1680 ng/mL
same,half-life,[6],34.4 min
same,MRT inf,[6],36.4 min
same,Vd,[6],0.838 L/kg
same,AUC(0-inf),[7],850 ng·h/mL
same,AUC(0-t),[7],844 ng·h/mL
same,C0,[7],1940 ng/mL
same,half-life,[7],84.6 min
same,MRT inf,[7],45.1 min
same,Vd,[7],0.886 L/kg
same,AUC(0-inf),[8],1380 ng·h/mL
same,AUC(0-t),[8],1370 ng·h/mL
same,C0,[8],2000 ng/mL
same,half-life,[8],79.8 min
same,MRT inf,[8],72 min
same,Vd,[8],0.868 L/kg
same,AUC(0-inf),[9],984 ng·h/mL
same,AUC(0-t),[9],977 ng·h/mL
same,C0,[9],1880 ng/mL
same,half-life,[9],66 min
same,MRT inf,[9],51 min
same,Vd,[9],0.864 L/kg
same,"Average plasma concentration, Mean","dog PK study 2, IV 1 mg/kg, HPβCD, 24 h, mean",BLOQ
same,AUClast/D,[6],719 (ng · h/mL)/(mg/kg)
same,AUC—% Extrap—obs,[6],0.552%
same,Cl_obs,[6],23.1 mL/min/kg
same,AUClast/D,[7],844 (ng · h/mL)/(mg/kg)
same,AUC—% Extrap—obs,[7],0.599%
same,Cl_obs,[7],19.6 mL/min/kg
same,AUClast/D,[8],1367 (ng · h/mL)/(mg/kg)
same,AUC—% Extrap—obs,[8],0.915%
same,Cl_obs,[8],12.1 mL/min/kg
same,AUClast/D,[9],977 (ng · h/mL)/(mg/kg)
same,AUC—% Extrap—obs,[9],0.689%
same,Cl_obs,[9],18.3 mL/min/kg
